Data taken from patent publication US20020040052A1, “Method for neurite outgrowth” (priority 2000, published 2002).

System: PC12 cells derived from adrenal medulla pheochromocytoma of rats
Test: Neurite extension of PC12 cells: percentage of cells with extended neurites after culturing for 3 days
Assay type: cell-based, rat
Protocol: Next, PC12 cells derived from adrenal medulla pheochromocytoma of rats were seeded in a serum-free DMEM/F12 medium containing 5 μg/ml of transferrin, 5 μg/ml of insulin and 20 nM of progesterone (GIBCO Corp., hereinafter, referred to as “DMEM-TIP medium”) at 2.0×10^4 cells/well (flat-bottomed 24 well collagen coated plate, manufactured by IWAKI). Then, the cells were cultured overnight at 37° C. under 5% CO2. […]
After culturing for 3 days, for each well of the plate, microscopic observation was conducted with respect to the cells at 200 times magnification. The percentage of the cells with extended neurites (cells that have neurites longer than their diameter) to the total of more than 200 cells was calculated.

| Structure (SMILES) | Ratio of the cells with extended neurites (10 μM in DMEM-TIP medium) [%] | Relative value of the ratio of the cells with extended neurites to control (Com. Ex. 1) (10 μM in DMEM-TIP medium) | Ratio of the cells with extended neurites (50 μM in DMEM-TIP medium) [%] | Relative value of the ratio of the cells with extended neurites to control (Com. Ex. 1) (50 μM in DMEM-TIP medium) | Ratio of the cells with extended neurites (100 μM in DMEM-TIP medium) [%] | Relative value of the ratio of the cells with extended neurites to control (Com. Ex. 1) (100 μM in DMEM-TIP medium) |
| --- | --- | --- | --- | --- | --- | --- |
| COc1ccc(-c2cc(=O)c3c(OC)c(OC)c(OC)c(OC)c3o2)cc1OC [nobiletin] | 8.7 | 2.5 | 16.6 | 4.7 | 42.8 | 12.2 |
| COc1ccc(-c2cc(=O)c3c(OC)c(OC)c(OC)c(OC)c3o2)cc1 [tangeretin] | 4.8 | 1.4 | – | – | 12.2 | 3.5 |
